From patent US11981954B2, “Compositions and methods for rapid identification and phenotypic antimicrobial susceptibility testing of bacteria and fungi” (priority 2019, dated 2024) come the findings set out here.

Holding throughout (conditions): interpreted according to CLSI M100 ED 30, confirmed by PCR ID/AST after 4 h incubation, 5E5 CFU/mL
For one assay, the system named is E. faecium strain 18483. Put plainly: PCR-based rapid ID/AST and CLSI susceptibility interpretation, E. faecium strain 18483. The assay is classed as cell-based, Enterococcus faecium. The protocol: (§1) • a. Prepare antimicrobial (Abx) Plate ahead of time and store at […] until needed • i. Diluent—Cation Adjusted Mueller Hinton Broth (CAMHB) • ii. Final Vol—50 ul/well • iii. Remove from −80 C and let thaw at 30 min/Room Temp prior to use
(§2) • b. Overnight cultures in CAMHB—37 C/16-18 hrs/500 rpm • i. 10 ul glycerol stock+490 ul CAMHB in 2 mL 96-well Deep Well Plate • c. Normalize cultures to 1.00E+06 CFU/mL by Optical Density (OD) • d. Prepare Test Plate by adding 50 ul normalized test isolate to appropriate wells of Abx Plate as outlined
(§3) • e. Incubate Test Plate at 37 C/4 hrs/no shaking • f. Prepare PCR Reagents according to TABLE XXIX • g. Add 45 ul Master Mix to each well of a PCR Assay Plate • h. Following incubation, stamp 5 ul/well of Test Plate to PCR Assay Plate • i. Final Vol—50 ul/well • i. For Test Plate, continue incubating at 37 C/12-16 hrs/no shaking to determine reference method Minimum Inhibitory Concentration (MIC) • j. Load PCR Assay Plate to cobas z 480 instrument and run under conditions of TABLE XXX. • k. Following incubation read Test Plate for MIC and determine phenotypic Susceptible/Intermediate/Resistant interpretation. […]

The test system of another assay is E. faecium strain 18446. Put plainly: PCR-based rapid ID/AST and CLSI susceptibility interpretation, E. faecium strain 18446. It counts as cell-based, Enterococcus faecium. The protocol:
as §1, §2, §3

The subject of a further assay is S. aureus strain 16405. Put plainly: PCR-based rapid ID/AST and CLSI susceptibility interpretation, S. aureus strain 16405. It counts as cell-based, Staphylococcus aureus. The protocol:
as §1, §2
(§4) • e. Incubate Test Plate at 37 C/4 hrs/no shaking • f. Prepare PCR Reagents according to TABLE XXIX • g. Add 45 ul Master Mix to each well of a PCR Assay Plate • h. Following incubation, stamp 5 ul/well of Test Plate to PCR Assay Plate • i. Final Vol—50 ul/well • i. For Test Plate, continue incubating at 37 C/12-16 hrs/no shaking to determine reference method Minimum Inhibitory Concentration (MIC) • j. Load PCR Assay Plate to cobas z 480 instrument and run under conditions of TABLE XXX. • k. Following incubation read Test Plate for MIC and determine phenotypic Susceptible/Intermediate/Resistant interpretation.
(§5) Rapid Identification and phenotypic antimicrobial susceptibility testing of Staphylococcus aureus utilizing three distinct target genes (gyrB, ddlA, tuf) and one class of antibacterial agent, cefoxitin (cephalosporin) was performed. […]

A further assay concerns S. aureus strain 15509. Put plainly: PCR-based rapid ID/AST and CLSI susceptibility interpretation, S. aureus strain 15509. It counts as cell-based, Staphylococcus aureus. The protocol:
as §1, §2, §4, §5

The test system of assay [1] is P. aeruginosa strain 16657. Put plainly: PCR-based rapid ID/AST and CLSI susceptibility interpretation, P. aeruginosa strain 16657. It counts as cell-based, Pseudomonas aeruginosa. As to the method:
as §1, §2, §4
(§6) The primer/probe sets used were as follows. […]

Assay [2] relates to K. pneumoniae strain 0143. Put plainly: PCR-based rapid ID/AST and CLSI susceptibility interpretation, K. pneumoniae strain 0143. The assay is classed as cell-based, Klebsiella pneumoniae. The protocol: as §1, §2, §4, §6
(§7) The percentages on the Y-axis depicted as “Fold Change Abx level 1” were determined using the calculation 2^-(Abx_Level_1_Ct−Reference_Ct) or 2^-([…]Ct).

The test system of assay [3] is A. baumannii strain 17694. Put plainly: PCR-based rapid ID/AST and CLSI susceptibility interpretation, A. baumannii strain 17694. The assay is classed as cell-based, Acinetobacter baumannii. The protocol:
as §1, §2, §4, §6

Assay [4] relates to P. aeruginosa strain 17816. Put plainly: PCR-based rapid ID/AST and CLSI susceptibility interpretation, P. aeruginosa strain 17816. The assay is classed as cell-based, Pseudomonas aeruginosa. As to the method: as §1, §2, §4, §6
Assay [5] has as its system A. baumannii strain 16421. Put plainly: PCR-based rapid ID/AST and CLSI susceptibility interpretation, A. baumannii strain 16421. It counts as cell-based, Acinetobacter baumannii. The protocol:
as §1, §2, §4, §6

The test system of assay [6] is K. pneumoniae strain 16565. Put plainly: PCR-based rapid ID/AST and CLSI susceptibility interpretation, K. pneumoniae strain 16565. It counts as cell-based, Klebsiella pneumoniae. The protocol: as §1, §2, §4, §6, §7

Consider `CC1(C)S[C@@H]2[C@H](NC(=O)[C@H](N)c3ccccc3)C(=O)N2[C@H]1C(=O)O` [ampicillin], for which the “antimicrobial susceptibility of the strain to the given antimicrobial” value (“antimicrobial susceptibility” for short) in the assay on E. faecium strain 18483 is reported as “resistant”; with E. faecium strain 18446, “sensitive”.
In the case of `CO[C@@]1(NC(=O)Cc2cccs2)C(=O)N2C(C(=O)O)=C(COC(N)=O)CS[C@@H]21` [cefoxitin], the “antimicrobial susceptibility” value is “sensitive” with S. aureus strain 16405 and “resistant” in the assay with S. aureus strain 15509.
In the case of `C[C@@H](O)[C@H]1C(=O)N2C(C(=O)O)=C(S[C@@H]3CN[C@H](C(=O)N(C)C)C3)[C@H](C)[C@H]12` [meropenem], the “antimicrobial susceptibility” value is “resistant” in [1]; “resistant” in [2]; “resistant” in assay [3]; “sensitive” in [4]; “sensitive” in [5]; “sensitive” in [6].
For `CN[C@H](CC(C)C)C(=O)N[C@H]1C(=O)N[C@@H](CC(N)=O)C(=O)N[C@H]2C(=O)N[C@H]3C(=O)N[C@H](C(=O)N[C@H](C(=O)O)c4cc(O)cc(O)c4-c4cc3ccc4O)[C@H](O)c3ccc(c(Cl)c3)Oc3cc2cc(c3O[C@@H]2O[C@H](CO)[C@@H](O)[C@H](O)[C@H]2O[C@H]2C[C@](C)(N)[C@H](O)[C@H](C)O2)Oc2ccc(cc2Cl)[C@H]1O` [vancomycin], the entries for the “antimicrobial susceptibility” value with E. faecium strain 18483 and in the assay on E. faecium strain 18446 were “resistant” and “sensitive”, respectively.
Take gentamicin: the “antimicrobial susceptibility” value in assay [1] is “resistant”; in [2], “resistant”; in [3] it was “resistant”; in assay [4], “sensitive”; in assay [5], “sensitive”; in [6], “sensitive”.
